Measurements published in patent publication US10150734B2, “Solid forms of 2-(5-(3-fluorophenyl)-3-hydroxypicolinamido)acetic acid, compositions, and uses thereof” (Akebia Therapeutics, Inc., priority 2015, dated 2018).
Values after ≈ are worked out from the molar mass of the structure shown. “Also recorded” adds a separate entry of the source.

Legend:
[1] = Slurry of a single salt (seven days of stirring in water / acetone), XRPD; assay type: physicochemical
[2] = Dynamic vapour sorption (moisture sorption) with XRPD of post-DVS material; assay type: physicochemical; conditions: for Moisture adsorbed at 60% RH / Moisture Sorption 90% RH / Moisture Sorption 60% RH / Weight moisture uptake at 60% RH / Weight moisture uptake at 90% RH: DVS; for Moisture adsorbed at 60% RH / Moisture Sorption 90% RH / Moisture Sorption 60% RH: 25.0 °C; for XRPD analysis of the post-DVS material: after DVS and drying at 60 °C for 2 hours; for Hygroscopicity (in words): from DVS moisture sorption
Experimental: Dynamic vapour sorption experiment was carried out by first holding the sample at 40% RH and 25.0° C. until an equilibrium weight was reached or for a maximum of four hours. The sample was then subjected to an isothermal (at 25.0° C.) adsorption scan from 40 to 90% RH in steps of 10%. The sample was allowed to equilibrate to an asymptotic weight at each point for a maximum of four hours. Following adsorption, a desorption scan from […] to 5% RH (at 25.0° C.) was run in steps of 10% again allowing a maximum of four hours for equilibration to an asymptotic weight. An adsorption scan was then performed from 0 to 40% RH in steps of 10%. The sample was then dried for no less than two hours at 60.0° C. and the resulting solid analyzed by XRPD.

[3] = Thermal stability experiments (solid stored at 60 °C; XRPD and HPLC); conditions: for Physical form / XRPD pattern change after storage at 60 °C for seven days (in words) / Chemical stability / degradation by HPLC after storage at 60 °C for seven days (in words): solid; for HPLC (% AUC): after storage at 60.0 °C; for Parent Material HPLC (% AUC): before storage at 60.0 °C
[4] = Competitive slurry of calcium, potassium and sodium salts in acetone; assay type: physicochemical; conditions: acetone (50 μL water added for potassium and sodium salts), room temperature, one and seven days
Experimental: Calcium, sodium, and potassium salts were used to setup different competitive slurry experiments. For competitive slurry of calcium salts (˜5-6 mg of Salt I and Salt II) were weighed into a 5.0 mL clear vial equipped with magnetic stir bars. These steps were repeated for potassium salt material (˜5-6.5 mg of Salt III) and sodium salt materials (˜2.6-6.4 mg of Salt IV and Salt V). […] All slurries, 400 μL, were filtered through 0.45 micron centrifuge filters after one and seven days of equilibration. The solids were analyzed by XRPD to check for salt conversion (Table 36).

[5] = Competitive slurry experiment of Forms A to H; assay type: physicochemical; conditions: IPAc/Heptane or toluene, RT
Experimental: Approximately 2 to 3 mg of materials from Forms A to H were weighed into a 20.0 mL clear vial equipped with magnetic stir bars (Table 13). IPAc/Heptane (1:2 V/V) and toluene were used as the solvent systems for these competitive slurry experiments. Two selected solvents, 1.0 mL, were added to achieve free-flowing slurry and allowed to equilibrate at room temperature. All slurries will be isolated via centrifuge filtration after one day and seven days of equilibration.

[6] = Single form slurry experiments of Forms A, D and G; assay type: physicochemical; conditions: for Outcome in the single form and competitive slurry experiments (in words): ambient temperature, all tested conditions
Experimental: Single form slurry experiments were conducted for Forms A, D and G in three solvents stems, water, 1:2 v/v IPAc/heptane, and toluene to evaluate their physical form stability as a single polymorph (Table 14). Form A remained unchanged at six day time point. […] Form D remained unchanged for three days in water but converted to a mixture A and D at six days. In 1:2 IPAc/heptane and toluene, Form D converted to a mixture of A and D at three days and then Form A at six days. […] Form D is also a metastable polymorph but its conversion to Form A is kinetically slower than Form G. The conversion was the slowest in water partly due to low solubility.
Approximately 10-20 mg of Forms A, D and G were weighed into 8 mL clear vials equipped with magnetic stir bars (Table 14). Water, IPAc/Heptane (1:2 V/V) and toluene were used as the solvent systems for these competitive slurry experiments. Three selected solvents, 1.0 mL, were added to achieve free-flowing slurry and allowed to equilibrate at room temperature. All slurries will be isolated via centrifuge filtration after three day and six days of equilibration.

[7] = Competitive slurry experiment of Forms A, D and G; assay type: physicochemical; conditions: mixture of Forms A, D and G slurried in Water, RT
Experimental: To evaluate relative stability of the anhydrate polymorphs, competitive slurry experiments of Forms A, D and G were conducted as described in below and summarized in Table 12. In all three solvent systems, water, 1:2 v/v IPAc/heptane, and toluene, Form A was the final polymorph after equilibration for 8 days.
Slurry experiments were performed using the following procedure: a mixture of Form A (˜12.0 mg, Compound 1), Form D (˜12.0 mg) and Form G (˜12.0 mg) were weighed into a 20.0 mL clear vial equipped with magnetic stir bars (Table 12). Water, IPAc/Heptane (1:2 V/V) and toluene were used as the solvent systems for these competitive slurry experiments. Three selected solvents, 1.0 mL, were added to achieve free-flowing slurry and allowed to equilibrate at room temperature.

[8] = Aqueous solubility (slurry in deionized water at room temperature, filtrate by HPLC, solids by XRPD); conditions: deionized water, room temperature, equilibrated with stirring, filtrate by HPLC
Experimental: Approximately 14-25 mg of Forms A, D and G were transferred to 20 mL vials equipped with magnetic stir bars. 1.0 mL of deionized water was added and the resulting free flowing slurry was allowed to equilibrate over 1 and 7 days period with stirring at room temperature. […] The filtrates were analyzed by HPLC to determine solubility.

[9] = Thermal holding (TGA thermal hold) experiments of salts, XRPD of resulting solid; assay type: physicochemical; conditions: held at 150 °C

| SMILES | Moisture Sorption ([2]; 60% RH) | Moisture Sorption ([2]; 90% RH) | Moisture adsorbed at 60% RH ([2]; 60% RH) [wt %] | Moisture Sorption 90% RH ([2]; 90% RH) [wt %] | XRPD analysis of the post-DVS material [2] | Hygroscopicity (in words) [2] | Physical form / XRPD pattern change after storage at 60 °C for seven days (in words) [3] | Outcome in the single form and competitive slurry experiments (in words) [6] | Moisture Sorption 60% RH ([2]; 60% RH) [%] | Weight moisture uptake at 60% RH ([2]; 60% RH) | Weight moisture uptake at 90% RH ([2]; 90% RH) | XRPD, Day 1 [7] | Solubility (extrapolated values based on the standard curve 0.008-0.2 mg/mL) [8] [µg/mL] | HPLC (% AUC) [3] [% AUC] | Parent Material HPLC (% AUC) [3] [% AUC] | Chemical stability / degradation by HPLC after storage at 60 °C for seven days (in words) [3] | also measured |
| --- | --- | --- | --- | --- | --- | --- | --- | --- | --- | --- | --- | --- | --- | --- | --- | --- | --- |
| O=C(O)CNC(=O)c1ncc(-c2cccc(F)c2)cc1O [Form B, 2-(5-(3-fluorophenyl)-3-hydroxypicolinamido)acetic acid] |  |  |  |  |  |  |  |  |  |  |  |  |  |  |  |  | Outcome in the competitive slurry experiment (in words) [5]: converted to Form A |
| O=C(O)CNC(=O)c1ncc(-c2cccc(F)c2)cc1O [Form D, 2-(5-(3-fluorophenyl)-3-hydroxypicolinamido)acetic acid] |  |  | 0.7 | 1.0 | consistent with the starting material | slightly hygroscopic | maintained its chemical and physical form | converted to Form A | 0.7 | about 0.7 % weight | about 1.0 % weight | A + D | 490 (≈ 1690 µM) | >99.9 | >99.9 | maintained its chemical and physical form; also recorded: chemically stable | XRPD, Day 3 ([6]; single form slurry, IPAc/Heptane (1:2 V/V), RT): A + D; XRPD, Day 3 ([6]; single form slurry, Toluene, RT): A + D; XRPD, Day 6 ([6]; single form slurry, Water, RT, day 6): A + D; Moisture Sorption 90% RH ([2]; 90% RH, listed as D): 1.0 wt % |

More lines, main results first:

| Moisture Sorption ([2]; 60% RH) | Moisture Sorption ([2]; 90% RH) | Moisture adsorbed at 60% RH ([2]; 60% RH) [wt %] | Moisture Sorption 90% RH ([2]; 90% RH) [wt %] | XRPD analysis of the post-DVS material [2] | Hygroscopicity (in words) [2] | Physical form / XRPD pattern change after storage at 60 °C for seven days (in words) [3] | Outcome in the single form and competitive slurry experiments (in words) [6] | Moisture Sorption 60% RH ([2]; 60% RH) [%] | Weight moisture uptake at 60% RH ([2]; 60% RH) | Weight moisture uptake at 90% RH ([2]; 90% RH) | XRPD, Day 1 [7] | Solubility (extrapolated values based on the standard curve 0.008-0.2 mg/mL) [8] [µg/mL] | HPLC (% AUC) [3] [% AUC] | Parent Material HPLC (% AUC) [3] [% AUC] | SMILES | Chemical stability / degradation by HPLC after storage at 60 °C for seven days (in words) [3] | also measured |
| --- | --- | --- | --- | --- | --- | --- | --- | --- | --- | --- | --- | --- | --- | --- | --- | --- | --- |
| 60% RH: 1.0 wt % | 90% RH: 2.7 wt % | 1.0 | 2.7 | consistent with the starting material | moderately hydroscopic | no change in XRPD pattern |  |  |  |  |  |  |  |  | O=C([O-])CNC(=O)c1ncc(-c2cccc(F)c2)cc1O.[Na+] [Salt VIII] | no degradation | XRPD after seven days of stirring in acetone ([1]; acetone): no change in XRPD pattern; Outcome of competitive slurry of salts (in words) [4]: stable in an acetone slurry |
| 60% RH: 0.3 wt % | 90% RH: 0.3 wt % | 0.3 | 0.3 | consistent with Salt IV of Compound 1 | moderately hydroscopic | no change in XRPD pattern |  |  |  |  |  |  |  |  | O=C([O-])CNC(=O)c1ncc(-c2cccc(F)c2)cc1O.[Na+] [Salt IX] | no degradation | Form after seven days of stirring in water and acetone ([1]; water and acetone): converted to Salt VIII or Salt IV; XRPD of solid after thermal holding experiment at 150 °C [9]: consistent with the starting material |
|  |  | 0 | 6.1 | consistent with the starting material | moderately hygroscopic | No chemical and physical form changes | most stable polymorph | 0 | about 0 % weight | about 6.1 % weight | A + D | 2.6 (≈ 8.96 µM) | >99.9 | >99.9 | O=C(O)CNC(=O)c1ncc(-c2cccc(F)c2)cc1O [Form A, 2-(5-(3-fluorophenyl)-3-hydroxypicolinamido)acetic acid] | No chemical and physical form changes; also recorded: chemically stable | Moisture Sorption 90% RH ([2]; 90% RH, listed as A): 6.1 wt % |
